How the values were obtained:
Type in all cases: cell-based, Pseudomonas aeruginosa
PA 259 = test: Checkerboard combination study / MIC; conditions: for MICAntibiotic: antibiotic alone
PA 101885 = test: Checkerboard combination study / MIC; conditions: for MICCombination (antibiotic): MIC of antibiotic combined with compound 2; for FICI: antibiotic + compound 2; for MICAntibiotic: antibiotic alone; for FICAntibiotic: with compound 2
PA 264 = test: Checkerboard combination study / MIC; conditions: for MICCombination (antibiotic): MIC of antibiotic combined with compound 2; for FICI: antibiotic + compound 2; for MICAntibiotic: antibiotic alone; for FICAntibiotic: with compound 2
PA 260 = test: Checkerboard combination study / MIC; conditions: for MICCombination (antibiotic): MIC of antibiotic combined with compound 2; for FICI: antibiotic + compound 2; for MICAntibiotic: antibiotic alone; for FICAntibiotic: with compound 2
WT P. aeruginosa PAO1 = test: Checkerboard combination study / MIC; conditions: for MIC: Pseudomonas aeruginosa, PAO1, 18 h, WT PAO1 (Table 2), read-out: MIC alone; for MIC / MIC of antibiotic alone in PAO1: antibiotic alone; for FICI in the presence of ≤10 μM of 1: antibiotic + compound 1; for FICI in the presence of ≤10 μM of 1 / MIC of Antibiotics in the presence of ≤10 μM of 1 / FICI in the presence of ≤10 μM of 2 / MIC of Antibiotics in the presence of ≤10 μM of 2 / FICI in the presence of ≤10 μM of 3 / MIC of Antibiotics in the presence of ≤10 μM of 3: WT PAO1; for MIC of Antibiotics in the presence of ≤10 μM of 1: antibiotic + compound 1 ≤10 μM; for FICI in the presence of ≤10 μM of 2: antibiotic + compound 2; for MIC of Antibiotics in the presence of ≤10 μM of 2: antibiotic + compound 2 ≤10 μM; for FICI in the presence of ≤10 μM of 3: antibiotic + compound 3; for MIC of Antibiotics in the presence of ≤10 μM of 3: antibiotic + compound 3 ≤10 μM; for MIC of antibiotic alone in PAO1: PAO1 wild-type (Table 4)
PA 114228 = test: Checkerboard combination study / MIC; conditions: for MICCombination (antibiotic): MIC of antibiotic combined with compound 2; for FICI: antibiotic + compound 2; for MICAntibiotic: antibiotic alone
PAO200 = conditions: for MIC of antibiotic alone in PAO200: PAO200 efflux-deficient
Text: (§1) PAO200 is a tnexA-rnexB-oprM deletion strain while PAO750 lacks five important RND pumps (McxAB-OprM, MexCD-OprJ, MexEF-OprN, Mex JK, and MexXY) and the outer membrane protein OpmH (46, 47). Some of these pumps are homologues of broad substrate specificities that extrude different classes of antimicrobial agents and confer resistance on P. aeruginosa (48).
(§2) Antimicrobial Susceptibility Assay. The in vitro antimicrobial activity of all compounds/antibiotics against a panel of bacteria was evaluated by microbroth dilution method in accordance with the Clinical and Laboratory Standards Institute (CLSI) guidelines. Overnight grown bacterial cultures were diluted in saline to achieve a 0.5 McFarland turbidity, followed by 1:50 dilution in Mueller-Hinton broth (MHB) for inoculation to a final concentration of approximately 5×10^5CFU/mL. The antimicrobial agents were 2-fold serially diluted in MHB in a 96-well plate and incubated at 37° C. with equal volumes of inoculum for 18 h. The lowest concentration that prevented the visible growth of bacteria was defined as the MIC for each antimicrobial agent. The broth with or without bacterial cells was used as positive or negative control, respectively.
(§3) Checkerboard Assay. Combination studies with different antibiotics were performed in 96-well plates as previously described (22). Briefly, the antibiotic of interest was serially diluted in MHB along the abscissa while the adjuvant (newly synthesized conjugates) was serially diluted in MHB along the ordinate. This creates a 10×7 matrix wherein each well consists of a combination of different antibiotic and adjuvant concentrations. Overnight grown bacterial cultures were diluted in saline to achieve a 0.5 McFarland turbidity, followed by 1:50 dilution in Mueller-Hinton broth (MHB) for inoculation to a final concentration of approximately 5×10^5CFU/mL. Equal volume of this bacterial culture was then added to each well and incubated at 37° C. for 18 h. After incubation, the plates were read on EMax® Plus microplate reader (Molecular Devices, Sunnyvale, Calif., USA) at 590 nm. MIC was recorded as wells with the lowest concentration of drugs with no bacterial growth. The fractional inhibitory concentration (FIC) for each antibiotic was calculated by dividing the MIC of the antibiotic in the presence of adjuvant by the MIC of the antibiotic alone. Similarly, the FIC of adjuvant was calculated by dividing the MIC of the adjuvant in the presence of antibiotic by the MIC of the adjuvant alone. FIC index is the sum of both FICs. FIC indices of <0.5 were deemed synergistic; 0.5-4, no interaction; and >4, antagonistic.

PAO750 = conditions: for MIC of antibiotic alone in PAO750: PAO750 efflux-deficient
Text: as §1, §2, §3

PA 91433 = test: Checkerboard combination study / MIC; conditions: PA 91433; for MICCombination (antibiotic): MIC of antibiotic combined with compound 2; for FICI: antibiotic + compound 2; for MICAntibiotic: antibiotic alone; for FICAntibiotic: with compound 2
PA 262 = test: Checkerboard combination study / MIC; conditions: for MICCombination (antibiotic): MIC of antibiotic combined with compound 2; for FICI: antibiotic + compound 2; for MICAntibiotic: antibiotic alone; for FICAntibiotic: with compound 2
PA 101243 = test: Checkerboard combination study / MIC; conditions: PA 101243; for MICCombination (antibiotic): MIC of antibiotic combined with compound 2; for FICI: antibiotic + compound 2; for MICAntibiotic: antibiotic alone; for FICAntibiotic: with compound 2
[1] = test system: MDR/XDR P. aeruginosa clinical isolates; test: MIC and checkerboard, panel of clinical isolates; conditions: antibiotic + compound 2 (8.7 μM); resistant P. aeruginosa isolates
PA 100036 = test: Checkerboard combination study / MIC; conditions: for MICCombination (antibiotic): MIC of antibiotic combined with compound 2; for FICI: antibiotic + compound 2; for MICAntibiotic: antibiotic alone; for FICAntibiotic: with compound 2

Structure (SMILES): CO/N=C(\C(=O)N[C@@H]1C(=O)N2C(C(=O)O)=C(COC(C)=O)CS[C@H]12)c1csc(N)n1 [Cefotaxime]
- MICCombination (antibiotic) (PA 259; MIC of antibiotic combined with compound 2): 512 µg/mL
- FICI (PA 259; antibiotic + compound 2): <0.31
- MICAntibiotic (PA 259): 2048 µg/mL
- FICAntibiotic (PA 259; with compound 2): 0.250
- MICCombination (antibiotic) (PA 101885): 8 µg/mL
- FICI (PA 101885): <0.13
- MICAntibiotic (PA 101885): 128 µg/mL
- FICAntibiotic (PA 101885): 0.063
- MICCombination (antibiotic) (PA 264): 512 µg/mL
- FICI (PA 264): <0.31
- MICAntibiotic (PA 264): 2048 µg/mL
- FICAntibiotic (PA 264): 0.250
- MICCombination (antibiotic) (PA 260): 512 µg/mL
- FICI (PA 260): <0.53
- MICAntibiotic (PA 260): 1024 µg/mL
- FICAntibiotic (PA 260): 0.500
- MIC of antibiotic + Compound 2 in PAO1 (WT P. aeruginosa PAO1; + compound 2 ≤8.7 μM, PAO1): 4 (4) μg/ml
- MIC (WT P. aeruginosa PAO1): 16 µg/mL
- FICI in the presence of ≤10 μM of 1 (WT P. aeruginosa PAO1): 0.13
- MIC of Antibiotics in the presence of ≤10 μM of 1 (WT P. aeruginosa PAO1): 2 µg/mL
- FICI in the presence of ≤10 μM of 2 (WT P. aeruginosa PAO1): 0.26
- MIC of Antibiotics in the presence of ≤10 μM of 2 (WT P. aeruginosa PAO1): 4 µg/mL
- FICI in the presence of ≤10 μM of 3 (WT P. aeruginosa PAO1): 0.27
- MIC of Antibiotics in the presence of ≤10 μM of 3 (WT P. aeruginosa PAO1): 4 µg/mL
- MIC of antibiotic alone in PAO1 (WT P. aeruginosa PAO1): 16 µg/mL
- MICCombination (antibiotic) (PA 114228): 16 µg/mL
- FICI (PA 114228): <0.14
- MICAntibiotic (PA 114228): 128 µg/mL
- MIC of antibiotic + Compound 2 in PAO200 (PAO200; + compound 2 ≤8.7 μM, PAO200): 4 µg/mL
- MIC of antibiotic alone in PAO200 (PAO200): 8 µg/mL
- MIC of antibiotic + Compound 2 in PAO750 (PAO750; + compound 2 ≤8.7 μM, PAO750): 2 µg/mL
- MIC of antibiotic alone in PAO750 (PAO750): 32 µg/mL
- MICCombination (antibiotic) (PA 91433): 8 µg/mL
- FICI (PA 91433): <0.07
- MICAntibiotic (PA 91433): 1024 µg/mL
- FICAntibiotic (PA 91433): 0.008
- MICCombination (antibiotic) (PA 262): 32 µg/mL
- FICI (PA 262): <0.31
- MICAntibiotic (PA 262): 128 µg/mL
- FICAntibiotic (PA 262): 0.250
- MICCombination (antibiotic) (PA 101243): 128 µg/mL
- FICI (PA 101243): <0.50
- MICAntibiotic (PA 101243): 256 µg/mL
- FICAntibiotic (PA 101243): 0.500
- resistant isolates reaching CLSI clinical breakpoint [1]: four out of ten
- MICCombination (antibiotic) (PA 100036): 8 µg/mL
- FICI (PA 100036): <0.31
- MICAntibiotic (PA 100036): 32 µg/mL
- FICAntibiotic (PA 100036): 0.250

Structure (SMILES): C[C@@H](O)[C@H]1C(=O)N2C(C(=O)O)=C(S[C@@H]3CN[C@H](CNS(N)(=O)=O)C3)[C@H](C)[C@H]12 [Doripenem]
- MICAntibiotic (PA 259): >1024 µg/mL
- MICCombination (antibiotic) (PA 101885): 1 µg/mL
- FICI (PA 101885): <0.27
- MICAntibiotic (PA 101885): 4 µg/mL
- FICAntibiotic (PA 101885): 0.250
- MICCombination (antibiotic) (PA 264): 8 µg/mL
- FICI (PA 264): <0.51
- MICAntibiotic (PA 264): 16 µg/mL
- FICAntibiotic (PA 264): 0.500
- MICCombination (antibiotic) (PA 260): 8 µg/mL
- FICI (PA 260): <0.53
- MICAntibiotic (PA 260): 16 µg/mL
- FICAntibiotic (PA 260): 0.500
- MIC of antibiotic + Compound 2 in PAO1 (WT P. aeruginosa PAO1; + compound 2 ≤8.7 μM, PAO1): 0.5 µg/mL
- fold change of MIC + Compound 2 in PAO1 (WT P. aeruginosa PAO1; + compound 2 ≤8.7 μM, PAO1): 2
- MIC (WT P. aeruginosa PAO1): 1 µg/mL
- FICI in the presence of ≤10 μM of 1 (WT P. aeruginosa PAO1): 0.51
- MIC of Antibiotics in the presence of ≤10 μM of 1 (WT P. aeruginosa PAO1): 0.5 µg/mL
- FICI in the presence of ≤10 μM of 2 (WT P. aeruginosa PAO1): 0.50
- MIC of Antibiotics in the presence of ≤10 μM of 2 (WT P. aeruginosa PAO1): 0.5 µg/mL
- FICI in the presence of ≤10 μM of 3 (WT P. aeruginosa PAO1): 0.50
- MIC of Antibiotics in the presence of ≤10 μM of 3 (WT P. aeruginosa PAO1): 0.5 µg/mL
- MIC of antibiotic alone in PAO1 (WT P. aeruginosa PAO1): 1 µg/mL
- MICCombination (antibiotic) (PA 114228): 1 µg/mL
- FICI (PA 114228): <0.14
- MICAntibiotic (PA 114228): 8 µg/mL
- FICAntibiotic (PA 114228; with compound 2): 0.125
- MIC of antibiotic + Compound 2 in PAO200 (PAO200; + compound 2 ≤8.7 μM, PAO200): 0.25 µg/mL
- fold change of MIC + Compound 2 in PAO200 (PAO200; + compound 2 ≤8.7 μM, PAO200): 4
- MIC of antibiotic alone in PAO200 (PAO200): 1 µg/mL
- MIC of antibiotic + Compound 2 in PAO750 (PAO750; + compound 2 ≤8.7 μM, PAO750): 0.25 µg/mL
- fold change of MIC + Compound 2 in PAO750 (PAO750; + compound 2 ≤8.7 μM, PAO750): 4
- MIC of antibiotic alone in PAO750 (PAO750): 1 µg/mL
- MICCombination (antibiotic) (PA 91433): 1 µg/mL
- FICI (PA 91433): <0.09
- MICAntibiotic (PA 91433): 16 µg/mL
- FICAntibiotic (PA 91433): 0.063
- MICCombination (antibiotic) (PA 262): 4 µg/mL
- FICI (PA 262): <0.31
- MICAntibiotic (PA 262): 16 µg/mL
- FICAntibiotic (PA 262): 0.250
- MICCombination (antibiotic) (PA 101243): 8 µg/mL
- FICI (PA 101243): <0.50
- MICAntibiotic (PA 101243): 16 µg/mL
- FICAntibiotic (PA 101243): 0.500
- resistant isolates reaching CLSI clinical breakpoint [1]: three out of nine
- MICCombination (antibiotic) (PA 100036): 8 µg/mL
- FICI (PA 100036): <0.56
- MICAntibiotic (PA 100036): 16 µg/mL
- FICAntibiotic (PA 100036): 0.500

From patent US20210290648A1, “Potentiation of B-Lactam Antibiotics and B-Lactam/B-Lactamase Inhibitor Combinations Against Multidrug and Extensively Drug-Resistant Pseudomonas Aeruginosa Using Non-Ribosomal Tobramycin-Cyclam Conjugates” (University of Manitoba, priority 2018, published 2021)
